Measurements from US10590077B2, “TRPV4 antagonists” (GlaxoSmithKline Intellectual Property (No.2) Limited, priority 2016, dated 2020).
Like-named read-outs stand apart in the source and are kept apart here.

Molecular target: human TRPV4 (Homo sapiens (Human), UniProt Q9HBA0)
Test: FLIPR assay for hTRPV4 expressed in BHK cells
Assay type: cell-based
Description: FLIPR Assay for hTRPV4 Expressed in BHK Cells:
TRPV4 channel activation results in an influx of divalent and monovalent cations including calcium. The resulting changes in intracellular calcium were monitored using a calcium specific fluorescent dye Fluo-4 (MDS Analytical Technologies). BHK/AC9 cells transduced with BacMam virus expressing the human TRPV4 gene at a MOI of 78 were plated in a 384 well poly-D lysine coated plate (15,000 cells/well in 50 μL culture medium containing DMEM/F12 with 15 mM HEPES, 10% FBS, 1% Penicillin-Streptomycin and 1% L-glutamine). Cells were incubated for 24 hours at 37° C. and 5% CO2. Culture medium was then aspirated using a Tecan plate-washer and replaced with 20 μL/well of dye loading buffer: HBSS, 500 μM Brilliant Black (MDS Analytical Technologies), and 2 μM Fluo-4 AM. Dye loaded plates were then incubated in the dark at room temperature for 1˜1.5 hours.

[1] = inhibition of Agonist Compound-induced calcium signal (agonist at EC80), BHK/AC9 cells expressing human TRPV4, read-out: IC50
[2] = average in at least one set of experimental runs, inhibition of Agonist Compound-induced calcium signal, read-out: average IC50

Chain of human TRPV4 (Q9HBA0 whole entry): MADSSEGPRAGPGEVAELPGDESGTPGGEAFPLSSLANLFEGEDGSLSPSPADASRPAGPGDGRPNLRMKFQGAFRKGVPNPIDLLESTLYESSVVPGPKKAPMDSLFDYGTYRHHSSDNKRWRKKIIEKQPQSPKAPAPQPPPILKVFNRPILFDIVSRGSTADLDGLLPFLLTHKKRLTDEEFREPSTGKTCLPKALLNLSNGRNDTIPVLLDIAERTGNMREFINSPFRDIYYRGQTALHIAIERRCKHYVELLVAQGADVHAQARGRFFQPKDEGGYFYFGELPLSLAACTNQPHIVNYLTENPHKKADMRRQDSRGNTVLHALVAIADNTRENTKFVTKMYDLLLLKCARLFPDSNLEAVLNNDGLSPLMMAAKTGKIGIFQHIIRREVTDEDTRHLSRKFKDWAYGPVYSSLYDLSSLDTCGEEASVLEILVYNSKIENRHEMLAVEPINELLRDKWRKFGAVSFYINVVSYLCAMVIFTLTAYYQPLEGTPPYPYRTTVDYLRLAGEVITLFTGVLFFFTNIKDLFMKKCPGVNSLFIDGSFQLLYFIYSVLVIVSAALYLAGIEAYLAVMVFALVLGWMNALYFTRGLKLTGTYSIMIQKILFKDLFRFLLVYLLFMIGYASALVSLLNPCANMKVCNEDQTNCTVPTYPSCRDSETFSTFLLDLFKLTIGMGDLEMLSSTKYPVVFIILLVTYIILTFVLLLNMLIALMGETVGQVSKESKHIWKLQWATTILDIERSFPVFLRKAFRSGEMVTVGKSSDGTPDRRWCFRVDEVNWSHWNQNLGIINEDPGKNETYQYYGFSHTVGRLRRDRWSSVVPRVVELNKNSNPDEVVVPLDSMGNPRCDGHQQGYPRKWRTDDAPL

SMILES	IC50 [1]	IC50 [2]
N#Cc1ccc(C[C@H]2CN(S(=O)(=O)c3ccc(Cl)cn3)C[C@@]2(O)CO)c(OCC(F)(F)F)c1 [Example 3, 4-(((3S,4R)-1-((5-chloropyridin-2-yl)sulfonyl)-4-hydroxy-4-(hydroxymethyl)pyrrolidin-3-yl)methyl)-3-(2,2,2-trifluoroethoxy)benzonitrile]	10 to 100 nM	
N#Cc1ccc(C[C@H]2CN(S(=O)(=O)c3ccc(C(F)(F)F)cc3Cl)C[C@@]2(O)CO)cc1 [Example 2, 4-(((3S,4R)-1-((2-chloro-4-(trifluoromethyl)phenyl)sulfonyl)-4-hydroxy-4-(hydroxymethyl)pyrrolidin-3-yl)methyl)benzonitrile]	10 to 100 nM	
N#Cc1ccc(S(=O)(=O)N2C[C@H](Cc3ccc(C#N)c(F)c3)[C@](O)(CO)C2)c(Cl)c1 [Example 6, 4-(((3S,4R)-1-((2-chloro-4-cyanophenyl)sulfonyl)-4-hydroxy-4-(hydroxymethyl)pyrrolidin-3-yl)methyl)-2-fluorobenzonitrile]	0.1 to 10 nM	
N#Cc1ccc(C[C@H]2CN(S(=O)(=O)c3ccc(C(F)(F)F)cc3C#N)C[C@@]2(O)CO)cc1F [Example 5, 4-(((3S,4R)-1-((2-cyano-4-(trifluoromethyl)phenyl)sulfonyl)-4-hydroxy-4-(hydroxymethyl)pyrrolidin-3-yl)methyl)-2-fluorobenzonitrile]	0.1 to 10 nM	
N#Cc1ccc(C[C@H]2CN(S(=O)(=O)c3ccc(Cl)cc3Cl)C[C@]2(O)CO)cc1F [Example 4, 4-(((3S,4S)-1-((2,4-dichlorophenyl)sulfonyl)-4-hydroxy-4-(hydroxymethyl)pyrrolidin-3-yl)methyl)-2-fluorobenzonitrile]	10 to 100 nM	
N#Cc1ccc(C[C@H]2CN(S(=O)(=O)c3ccc(Cl)cc3Cl)C[C@@]2(O)CO)cc1F [Example 1, 4-(((3S,4R)-1-((2,4-dichlorophenyl)sulfonyl)-4-hydroxy-4-(hydroxymethyl)pyrrolidin-3-yl)methyl)-2-fluorobenzonitrile]	0.1 to 10 nM	8 nM
N#Cc1ccc(C[C@H]2CN(S(=O)(=O)c3ccc(Cl)cn3)C[C@@]2(O)CN)cc1F [Example 7, 4-(((3S,4S)-4-(aminomethyl)-1-((5-chloropyridin-2-yl)sulfonyl)-4-hydroxypyrrolidin-3-yl)methyl)-2-fluorobenzonitrile]	0.1 to 10 nM	10 nM
